Series [1] is described as follows: Aqueous kinetic solubility by laser nephelometry. It counts as physicochemical. Conditions: aqueous medium, Table 7. As to the method: (§1) The software package StarDrop by Optibrium was used to calculate physicochemical parameters including log P, molecular weight, and polar surface area (PSA). The aqueous kinetic solubility of the compounds was measured using laser nephelometry as previously described.[40] The plasma protein binding of the compounds was determined by the equilibrium dialysis method.[12]

Series [2] in a line: In vivo mouse pharmacokinetics. Particulars: for Cmax / Tmax / half-life / AUC(0-t) at 8 h / AUC(0-t): female, mouse, in vivo, 10 mg/kg, NMRI mice; for AUC(0-t) at 8 h: read-out: AUC0–8; for AUC(0-t): read-out: AUC0–8 (converted). As to the method:
Each compound was dosed as a bolus solution intraperitoneally at 10 mg free base/kg (dose volume, 10 mL/kg; dose vehicles used, 10% DMSO; 40% PEG400; 50% Milli-Q water or 5% DMSO; 40% PEG400; 55% saline) to female HRN (1 only) or NMRI mice (n = 3) or dosed orally by gavage as a solution at 10 mg free base/kg (dose volume, 10 mL/kg; dose vehicle, 10% DMSO; 40% PEG400; 50% Milli-Q water) to female NMRI mice (n = 3). Female NMRI mice were chosen, as these represent the sex and strain used for the stage 1 and stage 2 HAT efficacy models. Blood samples were taken from each mouse at 5 (IP only), 15, and 30 min, 1, 2, 4, 6, and 8 h post dose, mixed with two volumes of distilled water, and stored frozen until UPLC/MS/MS analysis. Pharmacokinetic parameters were derived from noncompartmental analysis of the blood concentration time curve using PK solutions software v 2.0 (Summit Research Services, USA).

Series [3] can be described thus: Microsomal intrinsic clearance (Clint), mouse. It counts as in vitro ADME. Conditions: mouse liver microsomes, 0.5 μM compound. As to the method: Each test compound (0.5 μM) was incubated with pooled female CDI mouse liver microsomes, pooled male Sprague–Dawley rat microsomes, or pooled mixed gender human liver microsomes (Tebu-Bio, UK; 0.5 mg/mL 50 mM potassium phosphate buffer, pH 7.4) and the reaction started with addition of excess NADPH (8 mg/mL, 50 mM potassium phosphate buffer, pH 7.4). Immediately, at time zero, then at 3, 6, 9, 15, and 30 min, an aliquot (50 μL) of the incubation mixture was removed and mixed with acetonitrile (100 μL) to stop the reaction. Internal standard was added to all samples, and the samples were centrifuged at 1825g for 10 min to sediment precipitated protein. The plates were then sealed prior to UPLC/MS/MS analysis using a Quattro Premier XE (Waters Corporation, USA).
XLfit (IDBS, UK) was used to calculate the exponential decay and consequently the rate constant (k) from the ratio of peak area of test compound to internal standard at each time point.

The nature of series [4]: Maximum tolerated dose (MTD) studies.
The subject of series [5] is T. b. brucei GVR35. Particulars: 12.5 mg/kg IP b.i.d. for 5 d from 21 d post infection, majority of mice. The method, then:
For stage 2 of infection, the standard model is T. b. brucei GVR35 in which CNS infection is allowed to develop in female NMRI mice before treatment starts, requiring about 21 d.
These were carried out as previously described[27],[32] at the dose level presented and using the same dose formulation as the pharmacokinetic studies. HRN mice were used under the same infection and monitoring protocol as described for female NMRI mice.

Series [6] can be described thus: Plasma protein binding by equilibrium dialysis, mouse. It counts as in vitro ADME. Conditions: read-out: plasma protein binding, Fu (fraction unbound). As to the method:
as §1

A short description of series [7]: in vitro. Conditions: human, MRC-5 fibroblasts.
Description: Proliferation assays using bloodstream form T. brucei brucei and human MRC-5 fibroblasts were conducted using a modification of the cell viability assay as previously reported.[27],[39]
MRC-5 cells (2000 cells per well) were seeded in 200 μL of DMEM, 10% FCS, and allowed to adhere overnight. One microliter of test compound was added to each well on the day of assay initiation.
The final DMSO level was 0.5% in all cases.
Series [8] can be described thus: Brain tissue binding by equilibrium dialysis. The series is classed as in vitro ADME. Conditions: Sprague-Dawley, brain homogenate; rat (male SD rat); read-out: brain tissue binding (rat), Fu. As to the method:
In brief, a 96-well equilibrium dialysis apparatus was used to determine the free fraction in the brain for the test compound (HT Dialysis LLC, Gales Ferry, CT). Membranes (12–14 kDa A cutoff) were conditioned in deionized water for 60 min, followed by conditioning in 80:20 deionized water:ethanol for 20 min and then rinsed in artificial cerebrospinal fluid (CSF) before use. Mouse brain was removed from the freezer and allowed to thaw on the day of experiment. […] Diluted brain homogenate was spiked with the test compound (10 ug/g), and 150 μL aliquots (n = 6 replicate determinations) loaded into the 96-well equilibrium dialysis plate. Dialysis vs artificial CSF (150 μL) was carried out for 5 h in a temperature controlled incubator at ca. 37 °C (Stuart scientific Ltd., UK) using an orbital microplate shaker at 125 rpm (Stuart scientific Ltd., UK). […] All samples were analyzed by means of UPLC/MS/MS on a Quattro Premier XE mass spectrometer (Waters Corporation, USA). The unbound fraction was determined as the ratio of the peak area in artificial CSF to that in brain, with correction for dilution factor according to eq 1.[42] […] 1 where D = dilution factor in brain homogenate and Fu,apparent is the measured free fraction of diluted brain homogenate.

For series [9], the system named is panel of receptors, including dopamine, serotonin, histamine, and muscarinic receptors. In words: NIMH Psychoactive Drug Screening Program (PDSP) receptor panel. It counts as binding. Particulars: significant inhibition is considered > 50%. The source says:
However, the observed toxicity prevents further progression of the compounds. To try and identify a possible driver for toxicity, that may then offer an opportunity to design out this unwanted effect, the key compounds were screened against a panel of receptors at the NIMH Psychoactive Drug Screening Program (PDSP).[36],[37] No significant activity against a large panel of receptors, including dopamine, serotonin, histamine, and muscarinic receptors (see Supporting Information) was observed.
S2: Details of receptors screened at the NIMH Psychoactive Drug Screening Program […]
receptors screened. Significant inhibition is considered > 50%. In cases where negative inhibition (-) is seen, this represents a stimulation of binding. The receptors screened were 5- […]
HT7, Alpha1A, Alpha1B, Alpha1D, Alpha2A, Alpha2B, Alpha2C, Beta1, Beta2, Beta3, BZP rat Brain site, D1, D2, D3, D4, D5, DAT, DOR, GABBA, H1, H2, H3, KOR, M1, M2, M3, M4, M5, MOR, NET, PBR, SERT, Sigma1 and Sigma2

≈ marks a conversion by molar mass, not a printed value. Where “and” joins values, the source holds several entries; their conditions need not be identical. Equal values may be shown once. Read-outs that look alike come from different tables or passages of the source.

What is called solubility is how much of the substance goes into solution per volume. A low value points to a poorly soluble substance. By Cmax is commonly meant the maximum level reached in the sampled fluid or tissue. A word on the Tmax: it is the time from dosing to the highest level. Broadly, the half-life is the time in which the quantity being followed falls by half. A high value points to slow decline. What is called EC50 is the concentration giving half of the maximal effect. High values mean a need for much substance, low ones an effect from little substance. As to `CNC(=O)[C@H]1Cc2ccccc2N1C(=O)Cc1ccc(F)cc1` [Compound 47, (R)-1-(2-(4-Fluorophenyl)acetyl)-N-methylindoline-2-carboxamide], in series [1], the concentration in solution (solubility) was 64 µg/mL (≈ 205 µM). The “higher AUC compared to 1” value in series [2] (IP, female NMRI mice) is 1.5–6.5 fold. For the same molecule, in series [2] (IP), the Cmax was 2300 ng/mL and 7.4 µM; the Tmax stood at 15 min; the half-life is 30 min; the AUC(0-t) at 8 h was 9.1 µM·h. Moreover, in series [2] (IP), the AUC(0-t) is 2830 ng·h/mL. Further, in series [2] (PO), the Cmax is 750 ng/mL and 2.4 µM; the Tmax is 30 min; the half-life is 36 min; the AUC(0-t) at 8 h was found to be 3.3 µM·h. For the same molecule, in series [2] (PO), the AUC(0-t) was 1020 ng·h/mL. Moreover, the “mouse microsomal intrinsic clearance” value in [3] was 1.9 mL min^–1 g^–1 and 1.9/ND mL min^–1 g^–1. For the same molecule, in series [4] (15 mg/kg IP b.i.d., female NMRI mice (47: for 3 days)), the tolerability entry is recorded as “well tolerated”. For the same molecule, the tolerability result in [4] (25 mg/kg after a single dose, female NMRI mice) was “clinical signs of toxicity”. Moreover, in series [5], the “relapse with parasitaemia later than vehicle dosed infected mice” value lay in the range of 6 to 13 days. Further, the fraction unbound in [6] was determined as 0.59. The molecule also showed an EC50 at 69 h in series [7] of more than 50 µM. For the same molecule, the fraction unbound at 5 h, 10 ug/g in [8] was 0.43. For the same molecule, the “inhibition against receptors screened” value in [9] is recorded as “did not show significant inhibitor”.
